Source: paper PMC4775225, “Bromodomain inhibition of the transcriptional coactivators CBP/EP300 as a therapeutic strategy to target the IRF4 network in multiple myeloma” (eLife, 2016)

Columns and labels:
[1] = target: T1, CBP bromodomain (amino acids 1082–1197) (Homo sapiens, UniProt Q92793); experiment: AlphaLISA, acetylated peptide binding to CBP bromodomain
T1 construct: His-Flag-tagged CBP bromodomain (amino acids 1082–1197)
Procedure: Compound at varying concentrations were dispensed into 384 well Proxiplates (Perkin Elmer) using Echo technology (Labcyte, Inc.; Sunnyvale, CA). For CBP assays, 0.5 μM His-Flag-tagged CBP bromodomain (amino acids 1082–1197) was incubated with 0.003 μM H4-TetraAc-biotin for 20 min at room temperature in 1x reaction buffer (50 mM HEPES pH 7.5, 1 mM TCEP, 0.069 mM Brij-35, 150 mM NaCl, and 0.1 mg/ml BSA). Streptavidin acceptor beads and nickel donor beads (Perkin Elmer) were added to 15 μg/ml with a Combi Multidrop dispenser. Plates were sealed and incubated at 90 min in the dark at room temperature, and plates were read on an Envision plate reader (Perkin Elmer) according to manufacturer’s instructions. For the BET assays, the protocol was similar except that BET family bromodomains were used at 0.03 μM (BRD4-BD1) and incubated with 0.2 μM H4-TetraAc-biotin for 20 min in reaction buffer (40 mM HEPES pH7.0, 1 mM DTT, 0.069 mM Brij-35, 40 mM NaCl, and 0.1 mg/ml BSA). Streptavidin donor beads and Anti-Flag Acceptor beads (Perkin Elmer) were added to 10 μg/ml, and then plates were sealed and incubated in the dark for 60 min prior to reading on the Envision.

[2] = target: T2, CBP bromodomain and histone H3.3 (Homo sapiens, UniProt Q92793); experiment: NanoBRET, CBP bromodomain/histone H3.3 in HEK293 cells; type: cell-based; conditions: 293 cells, CBP bromodomain and histone H3.3; n = 3 technical replicates ± SEM
T2 construct: NanoBRET with the isolated CBP bromodomain and histone H3.3 in 293 cells; host or cells: HEK293
Procedure: NanoBRET was carried out using the NanoBRET Protein:Protein Interaction System (Promega, Inc.; Madison, WI) according to the manufacturer’s instructions. Briefly, HEK293 cells were transiently co-transfected with a vector for histone H3.3-HaloTag and a NanoLuc tagged CBP bromodomain expression construct. Transfected cells were plated in 96 -well plates in the presence or absence of ligand, then treated with dose titrations of indicated compounds. Readings were performed on an Envision Plate Reader (Perkin Elmer, Inc.; Waltham, MA) and BRET readings were calculated by dividing the acceptor emission value (600 nm) by the donor emission value (460/50 nm).

[3] = target: CBP-bromodomain/BRD9 ZsGreen fusion protein (Homo sapiens, UniProt Q92793); experiment: cell-based
CBP bromodomain = CBP bromodomain (Homo sapiens, UniProt Q92793); experiment: biochemical; conditions: read-out: DTm
[4] = tested on: H3K18 and H3K27 acetylation in LP-1 cells; experiment: Western analysis of global histone acetylation; type: cell-based, human; conditions: LP-1, 16 hr
Procedure: Whole cell extracts were prepared by lysis in RIPA buffer + EDTA (Boston Bioproducts, Inc.; Ashland, MA) with protease inhibitor cocktail (Roche Life Sciences; Indianapolis, IN). Extracts were subjected to SDS-PAGE and Western analysis with MYC (Cell Signaling (Danvers, MA) #5605), IRF4 (Cell Signaling #4964 or #4948), GAPDH (Life Technologies AM4300), CBP (Santa Cruz (Dallas, TX) sc-369), EP300 (Santa Cruz sc-584), or β-actin (Life Technologies AM4302) primary antibodies. For histone analysis, extracts were prepared by sulfuric acid extraction of permeablized nuclei, and extracted histones were subjected to SDS-PAGE and Western analysis with H3K18ac (Cell Signaling #9675), H3K27ac (EMD Millipore (Billerica, MA) 07–360), or H4 (Abcam (Cambridge, MA) 31830). Blots were incubated with DyLight conjugated secondary antibodies, imaged and quantified with a Licor fluorescence imager (Licor, Inc.; Lincoln, NE), or with HRP- conjugated secondary antibodies for ECL visualization.

Nalm6 = experiment: Viability, resazurin, 6 days; type: cell-based; conditions: Homo sapiens, NALM-6, 144 h, Nalm6, ALL
Procedure: Cells were plated at 5000–10000 cells per well of 96-well plates containing titrations of the compounds as indicated. After incubation, the cells were incubated with 500 μg/ml resazurin (Sigma) in PBS for 2–8 hr, and fluorescence was measured (Ex 530 nm, Em 590 nm). Cell cycle analysis was performed as described previously ([Mertz et al., 2011]). For visualization, DNA content histograms were generated with GraphPad Prism. Dose-response curves were generated by plotting the normalized percent growth, percent sub-G1 and percent increase in G0/G1 at each dose values. GI50 values were determined as the concentration at which viability was 50% of the DMSO value and calculated by a four-parameter non-linear regression model in GraphPad Prism.

T1 sequence (Q92793 1082-1197): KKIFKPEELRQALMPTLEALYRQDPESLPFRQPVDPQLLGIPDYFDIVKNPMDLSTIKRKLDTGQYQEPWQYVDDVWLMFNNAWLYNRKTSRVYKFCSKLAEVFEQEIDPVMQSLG
Sequence of CBP bromodomain (Q92793 1085-1192 limits assumed): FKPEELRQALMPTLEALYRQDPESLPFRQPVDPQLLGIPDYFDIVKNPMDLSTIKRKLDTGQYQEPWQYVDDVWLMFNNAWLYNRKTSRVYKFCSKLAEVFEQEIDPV
T2 sequence (Q92793 1085-1192 limits assumed): as above
Sequence of CBP-bromodomain/BRD9 ZsGreen fusion protein (Q92793 1085-1192): as the sequence (Q92793 1085-1192 limits assumed) above
Sequence of CBP-bromodomain/BRD9 ZsGreen fusion protein (Q9H8M2 with tags, fused parts or gaps partner): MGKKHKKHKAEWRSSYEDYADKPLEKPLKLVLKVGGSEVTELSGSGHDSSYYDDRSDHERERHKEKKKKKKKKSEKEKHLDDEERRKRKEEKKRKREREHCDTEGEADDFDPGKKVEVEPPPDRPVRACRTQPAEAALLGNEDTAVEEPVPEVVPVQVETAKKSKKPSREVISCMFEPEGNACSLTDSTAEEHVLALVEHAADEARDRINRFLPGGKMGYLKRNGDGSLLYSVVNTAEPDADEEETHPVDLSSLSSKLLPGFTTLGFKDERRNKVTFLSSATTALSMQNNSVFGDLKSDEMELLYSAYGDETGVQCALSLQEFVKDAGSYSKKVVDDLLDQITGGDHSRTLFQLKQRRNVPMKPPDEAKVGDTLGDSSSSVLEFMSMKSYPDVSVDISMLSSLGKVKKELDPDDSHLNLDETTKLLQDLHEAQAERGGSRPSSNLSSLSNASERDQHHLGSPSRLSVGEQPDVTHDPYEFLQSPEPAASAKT

IC50 [1] [µM] | IC50 (μM), CBP BRET (EC50, NanoBRET) [2] [µM] | EC50 [3] [µM] | ΔTm at 20 µM (CBP bromodomain) [°C] | Compound | changes in the global levels of H3K18 or H3K27 acetylation [4] | GI50 (Nalm6) [µM]
0.19 ± 0.02 | 0.25 ± 0.03 | 1.7 ± 0.34 | 4.52 | CCC(=O)N1CCOc2c(cc(-c3ccc(OC)c(OC)c3)cc2OC[C@H]2CCCN(C)C2)C1 [I-CBP112] | – | –
– | – | – | – | COc1ccc(CCc2nc3cc(-c4c(C)noc4C)ccc3n2C[C@H](C)N2CCOCC2)cc1Cl [SGC-CBP30] | did not observe any significant changes | 3.86
